Assay results: patent US20250326714A1, “PURE FORMS OF CRYSTALLINE ATICAPRANT” (Janssen Pharmaceuticals, Inc., priority 2022, published 2025)

How the values were obtained:
[1] = Solid-state characterization of Form III (GVS, TGA); type: physicochemical
[2] = ICH M7 class of impurity (DNA reactive / mutagenic impurities)
[3] = Body weight by treatment group, Example 5 study; type: in vivo, human
From the text: Treatment with the chemically and/or enantiomerically pure aticaprant described herein, e.g., chemically and/or enantiomerically pure crystalline Form III of aticaprant, or compositions containing the same as described herein has several advantages over the treatments in the art. […] As used herein, the term “weight gain” refers to an increase in the weight of patient, relative to the weight of the patient before taking the chemically and/or enantiomerically pure aticaprant described herein, e.g., chemically and/or enantiomerically pure crystalline Form III of aticaprant, or compositions containing the same or the weight of the patient that is assessed at the time of the initial administration of the chemically and/or enantiomerically pure aticaprant described herein, e.g., chemically and/or enantiomerically pure crystalline Form III of aticaprant, or compositions containing the same. In certain embodiments, the patient may actually see a decrease in overall weight, relative to the weight of the patient before taking the chemically and/or enantiomerically pure aticaprant described herein, e.g., chemically and/or enantiomerically pure crystalline Form III of aticaprant, or compositions containing the same.
At the lead-in baseline timepoint, the mean weight for subjects in the placebo group was 76.17 kg compared to 78.66 in the aticaprant group. After 6 weeks in the double-blind treatment phase, the mean weight in the placebo group was 75.75 kg compared to 78.57 kg in the aticaprant group. […] This is unexpected because other adjunctive treatments for MDD result in a mean weight increase. See, Thase M, et al. J Clin Psych. 2015: 76 (9), 1224-1231; Thase, J Clin Psych. 2015, 76 (9): 1232-1240; El Khalili, Int J Neuropsychopharmacol. 2010, 13, 917-932; Marcus, J. Clin. Psychopharmacol. […] Nashville, Tenn, ACNP, 2008; Earley, American College of Neuropsychopharmacology, 2007, Annual Meeting Abstracts (Boca Raton, Fla, Dec. 9-13, 2007). Nashville, TN, ACNP, 2007). See, Table 48.

Compound: Cc1cc(C)cc([C@@H]2CCCN2Cc2ccc(Oc3ccc(C(N)=O)cc3F)cc2)c1 [Form III]
- TGA degradation onset [1]: Degradation onset ~250 °C
- XRPD after GVS [1]: XRPD unchanged after GVS

Compound: Cc1cc(C)cc([C@@H]2CCCN2Cc2ccc(Oc3ccc(CN4CCC[C@H]4c4cc(C)cc(C)c4)cc3)cc2)c1 [Impurity 1]
- Impurity Class (ICH M7 Guideline) [2]: Class 5

Compound: Cc1cc(C)cc(C2CCCN2Cc2ccc(Oc3ccc(C(N)=O)cc3F)cc2)c1 (stereo not drawn) [aticaprant, 3-fluoro-4-4-2-(3,5-dimethylphenyl) pyrrolidin-1-yl-methylphenoxybenzamide]
- weight over the 6-week double blind treatment period ([3]; both groups): remained relatively stable
- Mean weight, Absolute Change (Withdrawal − Lead-in) ([3]; n = 85): -0.09 kg
- Mean weight, Lead-in Baseline, mean (SE) ([3]; n = 85): 78.66 (1.65) kg
- Mean weight, Relative % Change ([3]; n = 85): −0.11%
- Mean weight, Screening, mean (SE) ([3]; n = 85): 78.42 (1.65) kg
- Mean weight, Withdrawal Baseline, mean (SE) ([3]; n = 85, after 6 weeks double-blind treatment): 78.57 (1.71) kg
